Assay results reported in ChEMBL document CHEMBL1122107, “Structure-antitumor activity relationships of 9-anilinoacridines using pattern recognition” (1982).

System: L1210
Assay: Tumor cell selectivity determined as maximal percent increase in life span (ILSmax) at LD10 dosage level in L1210 cells
Assay type: functional, Mus musculus

SMILES	ILSmax [%]
CCCN(C)/N=N/c1ccc2c(Nc3ccc(NS(C)(=O)=O)cc3)c3ccccc3nc2c1	98
COc1cc(NS(C)(=O)=O)ccc1Nc1c2ccccc2nc2cc(C(F)(F)F)c(N)cc12	90
O=C(O)COc1ccc(Nc2c3ccccc3nc3ccccc23)cc1	25
COc1ccc(Nc2c3ccccc3nc3ccccc23)cc1	25
CCOC(=O)NNc1ccc(Nc2c3ccccc3nc3ccccc23)cc1	75
Nc1ccc(Nc2c3ccccc3nc3ccccc23)cc1	25
COc1cc(NS(C)(=O)=O)ccc1Nc1c2ccccc2nc2c(C(=O)NCCO)cccc12	100
c1ccc2c(Nc3ccc(N4CCNCC4)cc3)c3ccccc3nc2c1	25
NS(=O)(=O)c1ccccc1Nc1c2ccccc2nc2ccccc12	25
COc1cc(NS(C)(=O)=O)ccc1Nc1c2ccccc2nc2cc(I)ccc12	74
CCS(=O)(=O)Nc1ccc(Nc2c3ccccc3nc3c(C(N)=O)cccc23)c(OC)c1	166
Cc1cc(NS(C)(=O)=O)ccc1Nc1c2ccc([N+](=O)[O-])cc2nc2c(C)c(C)ccc12	60
COc1ccc2c(Nc3ccc(NS(C)(=O)=O)cc3)c3ccc([N+](=O)[O-])cc3nc2c1	60
CS(=O)(=O)Nc1ccc(Nc2c3ccccc3nc3cc(NC(=O)/C=C/c4ccccc4)ccc23)cc1	25
CCS(=O)(=O)Nc1ccc(Nc2c3ccccc3nc3cc(Cl)ccc23)c(OC)c1	95
CCC(CC)C(=O)Nc1ccc(Nc2c3ccccc3nc3ccccc23)cc1	90
COc1cc(NS(C)(=O)=O)ccc1Nc1c2ccccc2nc2c(Br)cccc12	100
CN1CCN(c2ccc(Nc3c4ccccc4nc4cc([N+](=O)[O-])ccc34)cc2)CC1	25
COc1ccc2c(Nc3ccc(NS(C)(=O)=O)cc3)c3ccc(OC)cc3nc2c1	56
CCCCS(=O)(=O)Nc1ccc(Nc2c3ccccc3nc3c(OC)cccc23)c(OC)c1	63
CCCCCS(=O)(=O)Nc1ccc(Nc2c3ccccc3nc3c(C(N)=O)cccc23)c(OC)c1	93
CCCCOc1cccc2c(Nc3ccc(NS(=O)(=O)CCC)cc3OC)c3ccccc3nc12	80
N=C(N)NCCCCS(=O)(=O)Nc1ccc(Nc2c3ccccc3nc3ccccc23)cc1	25
NCCCCCS(=O)(=O)Nc1ccc(Nc2c3ccccc3nc3cc([N+](=O)[O-])ccc23)cc1	80

SMILES	ILSmax [%]
Nc1ccc(CCS(=O)(=O)Nc2ccc(Nc3c4ccccc4nc4ccccc34)cc2)cc1	25
CS(=O)(=O)Nc1ccc(Nc2c3ccccc3nc3ccccc23)c(OCCO)c1	67
COc1ccc(Nc2c3ccccc3nc3ccccc23)c(NS(C)(=O)=O)c1	50
NCc1ccc(Nc2c3ccccc3nc3ccccc23)cc1	25
Nc1ccc2c(=Nc3ccc(S(N)(=O)=O)cc3)c3ccc(N)cc3[nH]c2c1	60
CC(=O)Nc1ccc2c(Nc3ccc(NS(C)(=O)=O)cc3)c3cccc(C)c3nc2c1C	60
COc1cc(NS(C)(=O)=O)ccc1N=c1c2ccccc2[nH]c2ccc(C(C)(C)C)cc12	25
OC[C@@H]1O[C@H](Oc2ccc(Nc3c4ccccc4nc4ccccc34)cc2)[C@@H](O)[C@H](O)[C@H]1O	60
CC(=O)N(c1ccc(Nc2c3ccc([N+](=O)[O-])cc3nc3c(C)cccc23)cc1)S(C)(=O)=O	150
O=C(O)CCCCCCCc1ccc(Nc2c3ccccc3nc3ccccc23)cc1	75
Cc1cc(NS(C)(=O)=O)ccc1Nc1c2ccccc2nc2c(N)cccc12	120
CS(=O)(=O)c1ccc(S(=O)(=O)Nc2ccc(Nc3c4ccccc4nc4ccccc34)cc2)cc1	128
O=C(O)CCCCc1ccc(NC(=O)Nc2ccc(N=c3c4ccccc4[nH]c4ccccc34)cc2)cc1	80
NCCCCCS(=O)(=O)Nc1ccc(Nc2c3ccccc3nc3ccccc23)cc1	25
Cc1cccc2c(Nc3ccc(NS(C)(=O)=O)cc3)c3cc(N)c(Br)cc3nc12	120
COc1cc(NS(C)(=O)=O)ccc1N=c1c2ccccc2[nH]c2ccc(C(N)=O)cc12	25
CC(=O)N(C)c1ccc(Nc2c3ccccc3nc3ccccc23)cc1	50
COC(=O)N(c1ccc(Nc2c3ccccc3nc3cc(NC(C)=O)ccc23)cc1)S(C)(=O)=O	125
Nc1ccc2c(Nc3ccc([N+](=O)[O-])cc3)c3ccccc3nc2c1	25
CCCCCCS(=O)(=O)Nc1ccc(Nc2c3ccccc3nc3cc(S(C)(=O)=O)ccc23)c(OC)c1	25
COc1cc(NS(C)(=O)=O)ccc1Nc1c2ccccc2nc2cc(Cl)ccc12	99
CCCCCCC(=O)N(c1ccc(Nc2c3ccccc3nc3cc(NC(C)=O)ccc23)cc1)S(C)(=O)=O	100
NCCc1ccc(Nc2c3ccccc3nc3ccccc23)cc1	25
CS(=O)(=O)Nc1ccc(Nc2c3ccccc3nc3ccccc23)cc1Cl	25

SMILES	ILSmax [%]
O=C(O)c1ccc(/C=C/c2ccc(Nc3c4ccccc4nc4ccccc34)cc2)cc1	158
COc1cc(NS(C)(=O)=O)ccc1Nc1c2ccccc2nc2cc(C(C)C)ccc12	40
CCc1ccccc1Nc1c2ccccc2nc2ccccc12	25
CN(c1ccc(N=c2c3ccccc3[nH]c3cc(N)ccc23)cc1)S(C)(=O)=O	100
Nc1cccc(Nc2c3ccccc3nc3ccccc23)c1	50
CCCCNC(=O)c1cccc2c(Nc3ccc(NS(=O)(=O)CCC)cc3OC)c3ccccc3nc12	71
O=S(=O)(Cc1ccc(Nc2c3ccccc3nc3ccccc23)cc1)Nc1ccccn1	98
CC(=O)Nc1ccc(S(=O)(=O)Nc2ccc(Nc3c4ccccc4nc4ccccc34)cc2)cc1	151
CS(=O)(=O)N1CCN(c2ccc(Nc3c4ccccc4nc4ccccc34)cc2)CC1	70
NCCCS(=O)(=O)c1ccc(Nc2c3ccccc3nc3cc([N+](=O)[O-])ccc23)cc1	95
CCCCCCS(=O)(=O)Nc1ccc(Nc2c3ccccc3nc3c(C(N)=O)cccc23)c(OC)c1	87
CCCCCCS(=O)(=O)Nc1ccc(Nc2c3ccccc3nc3cc(NC(C)=O)ccc23)cc1	42
CN(c1ccc(Nc2c3ccccc3nc3ccccc23)cc1)S(C)(=O)=O	65
Cc1cc(NS(C)(=O)=O)ccc1Nc1c2ccccc2nc2c(C(N)=O)cccc12	68
CC(=O)Nc1ccc(Nc2c3ccccc3nc3ccccc23)cc1	60
CC(=O)NCCS(=O)(=O)Nc1ccc(Nc2c3ccccc3nc3ccccc23)cc1	105
Ic1ccccc1Nc1c2ccccc2nc2ccccc12	25
COc1cc(/C=C/C(=O)O)ccc1Nc1c2ccccc2nc2ccccc12	27
Cc1cccc2c(Nc3ccc(NS(=O)(=O)CCCCN)cc3)c3cccc(C)c3nc12	72
CS(=O)(=O)Nc1ccc(Nc2c3ccccc3nc3ccccc23)c(Cl)c1	25
c1ccc(Nc2c3ccccc3nc3ccccc23)cc1	25
O=S(=O)(Nc1ccc(Nc2c3ccccc3nc3ccccc23)cc1)c1ccccc1	75
NCC(=O)NCCS(=O)(=O)Nc1ccc(Nc2c3ccccc3nc3cc([N+](=O)[O-])ccc23)cc1	170
